Experimental data published in patent US8071587B2, “(Dihydro)imidazoiso[5,1-A]quinolines” (N. V. Organon, priority 2009, dated 2011).

melting point [°C] | Structure (SMILES)
162 | COc1cc2c(cc1-c1ccc3c(c1)OCO3)-c1c(-c3cccs3)nc(C(=O)N(C)C(C)(C)C)n1CC2 [Example 2r, 9-Benzo[1,3]dioxol-5-yl-8-methoxy-1-thiophen-2-yl-5,6-dihydro-imidazo[5,1-a]isoquinoline-3-carboxylic acid tert-butyl-methyl-amide]
123 to 124 | COc1cccc(Oc2cc3c(cc2OC)CCn2c(C(=O)N(C)C(C)(C)C)nc(-c4cccs4)c2-3)c1 [Example 43b, 8-Methoxy-9-(3-methoxy-phenoxy)-1-thiophen-2-yl-5,6-dihydro-imidazo[5,1-a]isoquinoline-3-carboxylic acid tert-butyl-methyl-amide]
180 | COc1cc2c(cc1-c1cccc(-n3cccn3)c1)-c1c(-c3cccs3)nc(C(=O)N(C)C(C)(C)C)n1CC2 [Example 2g, 8-Methoxy-9-(3-pyrazol-1-yl-phenyl)-1-thiophen-2-yl-5,6-dihydro-imidazo[5,1-a]isoquinoline-3-carboxylic acid tert-butyl-methyl-amide]
126 | CC(C)Cc1ccc2c(c1)-c1c(-c3cccs3)nc(C(=O)N(C)C(C)(C)C)n1CC2 [Example 20b, 9-Isobutyl-1-thiophen-2-yl-5,6-dihydro-imidazo[5,1-a]isoquinoline-3-carboxylic acid tert-butyl-methyl-amide]
216 | COc1cc2c(cc1-c1cccc(S(C)(=O)=O)c1)-c1c(-c3cccs3)nc(C(=O)N(C)C(C)(C)C)n1CC2 [Example 2p, 9-(3-Methanesulfonyl-phenyl)-8-methoxy-1-thiophen-2-yl-5,6-dihydro-imidazo[5,1-a]isoquinoline-3-carboxylic acid tert-butyl-methyl-amide]
165 | COc1cc2c(cc1-c1cccc(F)c1)-c1c(-c3cccs3)nc(C(=O)N(C)C(C)(C)C)n1CC2 [Example 2i, 9-(3-Fluoro-phenyl)-8-methoxy-1-thiophen-2-yl-5,6-dihydro-imidazo[5,1-a]isoquinoline-3-carboxylic acid tert-butyl-methyl-amide]
213 | COc1cc2c(cc1-c1cccc(N)c1)-c1c(-c3cccs3)nc(C(=O)N(C)C(C)(C)C)n1CC2 [Example 2k, 9-(3-Amino-phenyl)-8-methoxy-1-thiophen-2-yl-5,6-dihydro-imidazo[5,1-a]isoquinoline-3-carboxylic acid tert-butyl-methyl-amide]
111 to 112 | CCOc1ccc2c(c1)CCn1c(C(=O)N(C)C(C)(C)C)nc(-c3cccs3)c1-2 [Example 40c, 8-Ethoxy-1-thiophen-2-yl-5,6-dihydro-imidazo[5,1-a]isoquinoline-3-carboxylic acid tert-butyl-methyl-amide]
178 to 186 | CCN(C(=O)c1nc(-c2cccs2)c2n1CCc1cc(OC)c(OCCO)cc1-2)C(C)(C)C [Example 34b, 9-(2-Hydroxy-ethoxy)-8-methoxy-1-thiophen-2-yl-5,6-dihydro-imidazo[5,1-a]isoquinoline-3-carboxylic acid tert-butyl-ethyl-amide]
151 | COc1cc2c(cc1-c1cccc(C(=O)N(C)C)c1)-c1c(-c3cccs3)nc(C(=O)N(C)C(C)(C)C)n1CC2 [Example 2n, 9-(3-Dimethylcarbamoyl-phenyl)-8-methoxy-1-thiophen-2-yl-5,6-dihydro-imidazo[5,1-a]iso-quinoline-3-carboxylic acid tert-butyl-methyl-amide]
176 to 177 | COc1cc2c(cc1-c1ccccn1)-c1c(-c3cccs3)nc(C(=O)N(C)C(C)(C)C)n1CC2 [Example 2b, 8-Methoxy-9-pyridin-2-yl-1-thiophen-2-yl-5,6-dihydro-imidazo[5,1-a]isoquinoline-3-carboxylic acid tert-butyl-methyl-amide]
188 to 189 | COc1ccccc1-c1cc2c(cc1OC)CCn1c(C(=O)N(C)C(C)(C)C)nc(-c3cccs3)c1-2 [Example 2q, 8-Methoxy-9-(2-methoxy-phenyl)-1-thiophen-2-yl-5,6-dihydro-imidazo[5,1-a]isoquinoline-3-carboxylic acid tert-butyl-methyl-amide]
121 to 123 | COc1cc2ccn3c(C(=O)N(C)C(C)(C)C)nc(-c4cccs4)c3c2cc1C=C(C)C [Example 16e, 8-Methoxy-9-(2-methyl-propenyl)-1-thiophen-2-yl-imidazo[5,1-a]isoquinoline-3-carboxylic acid tert-butyl-methyl-amide]
85 to 90 | COc1cc2c(cc1-c1cccc(N3CCOCC3)c1)-c1c(-c3cccs3)nc(C(=O)N(C)C(C)(C)C)n1CC2 [Example 2h, 8-Methoxy-9-(3-morpholin-4-yl-phenyl)-1-thiophen-2-yl-5,6-dihydro-imidazo[5,1-a]isoquinoline-3-carboxylic acid tert-butyl-methyl-amide]

More lines, now with the values behind:

Structure (SMILES) | melting point [°C]
COc1cc2c(cc1NC(=O)c1csnn1)-c1c(-c3cccs3)nc(C(=O)N(C)C(C)(C)C)n1CC2 [Example 12, 8-Methoxy-9[([1,2,3]thiadiazole-4-carbonyl)-amino]-1-thiophen-2-yl-5,6-dihydro-imidazo[5,1-a]isoquinoline-3-carboxylic acid tert-butyl-methyl-amide] | 210 to 212
COc1cc2c(cc1C=C(F)F)-c1c(-c3cccs3)nc(C(=O)N(C)C(C)(C)C)n1CC2 [Example 39, 9-(2,2-Difluoro-vinyl)-8-methoxy-1-thiophen-2-yl-5,6-dihydro-imidazo[5,1-a]isoquinoline-3-carboxylic acid tert-butyl-methyl-amide] | 154 to 155
COc1cc2c(cc1Br)-c1c(-c3cccs3)nc(C(=O)N(C)C(C)(C)C)n1CC2 [Example 1j, 9-Bromo-8-methoxy-1-thiophen-2-yl-5,6-dihydro-imidazo[5,1-a]isoquinoline-3-carboxylic acid tert-butyl-methyl-amide] | 160 to 161
COc1cc2c(cc1NC(=O)c1cscn1)-c1c(-c3cccs3)nc(C(=O)N(C)C(C)(C)C)n1CC2 [Example 11, 8-Methoxy-9-[(thiazole-4-carbonyl)-amino]-1-thiophen-2-yl-5,6-dihydro-imidazo[5,1-a]isoquinoline-3-carboxylic acid tert-butyl-methyl-amide] | 240 to 242
COc1cc2c(cc1CC(C)C)-c1c(-c3cncs3)nc(C(=O)N(C)C(C)(C)C)n1CC2 [Example 38, 9-Isobutyl-8-methoxy-1-thiazol-5-yl-5,6-dihydro-imidazo[5,1-a]isoquinoline-3-carboxylic acid tert-butyl-methyl-amide] | 144 to 145
COc1cc2c(cc1NC(=O)c1cccnc1)-c1c(-c3cccs3)nc(C(=O)N(C)C(C)(C)C)n1CC2 [Example 9, 8-Methoxy-9-[(pyridine-3-carbonyl)-amino]-1-thiophen-2-yl-5,6-dihydro-imidazo[5,1-a]isoquinoline-3-carboxylic acid tert-butyl-methyl-amide] | 159 to 161
COc1cc2c(cc1C(=O)NC(C)C)-c1c(-c3cccs3)nc(C(=O)N(C)C(C)(C)C)n1CC2 [Example 5, 8-Methoxy-1-thiophen-2-yl-5,6-dihydro-imidazo[5,1-a]isoquinoline-3,9-dicarboxylic acid 3-(tert-butyl-methyl-amide) 9-isopropylamide] | 197 to 198
